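All cell lines were grown in 96-well plates and treated with compound for 48 hours. GI50: concentration for 50% inhibition of growth.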 Calls of active or inactive are those of the source. Cut-off read from the data, not from the text of the source: active = GI50 up to about 1.1 µM and inactive = higher.
Key:
Assay in all cases: growth of human tumour cells (NCI), 48 h
SK-MEL-5 = system: SK-MEL-5
EKVX = system: EKVX
HL-60 = system: HL-60
NCI-H460 = system: NCI-H460
RXF 393 = system: RXF 393
SF-295 = system: SF-295
HT-29 = system: HT-29
MCF7 = system: MCF7
ACHN = system: ACHN
BT-549 = system: BT-549
Malme-3M = system: Malme-3M
SF-539 = system: SF-539
A498 = system: A498
COLO 205 = system: COLO 205
TK-10 = system: TK-10
KM12 = system: KM12
NCI-H522 = system: NCI-H522
HOP-62 = system: HOP-62
SN12C = system: SN12C
HCT-116 = system: HCT-116
Hs-578T = system: Hs-578T
RPMI-8226 = system: RPMI-8226
UO-31 = system: UO-31
SK-OV-3 = system: SK-OV-3
MDA-MB-231 = system: MDA-MB-231
SNB-19 = system: SNB-19
DU-145 = system: DU-145
UACC-257 = system: UACC-257
CAKI-1 = system: CAKI-1
SK-MEL-28 = system: SK-MEL-28
OVCAR-8 = system: OVCAR-8
HOP-92 = system: HOP-92
NCI/ADR-RES = system: NCI/ADR-RES
OVCAR-4 = system: OVCAR-4
SNB-75 = system: SNB-75
IGROV-1 = system: IGROV-1
M14 = system: M14
HCC 2998 = system: HCC 2998
T47D = system: T47D
OVCAR-5 = system: OVCAR-5
A549 = system: A549
OVCAR-3 = system: OVCAR-3
LOX IMVI = system: LOX IMVI
PC-3 = system: PC-3
MDA-MB-435 = system: MDA-MB-435
SR = system: SR
U-251 = system: U-251
HCT-15 = system: HCT-15
MOLT-4 = system: MOLT-4
MDA-N = system: MDA-N
SW-620 = system: SW-620
786-0 = system: 786-0
SF-268 = system: SF-268
K562 = system: K562
NCI-H226 = system: NCI-H226
NCI-H23 = system: NCI-H23
UACC-62 = system: UACC-62
SK-MEL-2 = system: SK-MEL-2

Compound: COc1cc(/C=[N+](\[O-])c2ccccc2Cl)ccc1OC(=S)S
- GI50 (SK-MEL-5): 16.6 µM (inactive)
- GI50 (EKVX): 29.2 µM (inactive)
- GI50 (HL-60): 20.1 µM (inactive)
- GI50 (NCI-H460): 27.2 µM (inactive)
- GI50 (RXF 393): 26.4 µM (inactive)
- GI50 (SF-295): 30.3 µM (inactive)
- GI50 (HT-29): 42.5 µM (inactive)
- GI50 (MCF7): 27.6 µM (inactive)
- GI50 (ACHN): 34 µM (inactive)
- GI50 (BT-549): 26.9 µM (inactive)
- GI50 (Malme-3M): 38.4 µM (inactive)
- GI50 (SF-539): 68.7 µM (inactive)
- GI50 (A498): 18.9 µM (inactive)
- GI50 (COLO 205): 21.8 µM (inactive)
- GI50 (TK-10): 64.4 µM (inactive)
- GI50 (KM12): 15.1 µM (inactive)
- GI50 (NCI-H522): 26.5 µM (inactive)
- GI50 (HOP-62): 39.9 µM (inactive)
- GI50 (SN12C): 45.7 µM (inactive)
- GI50 (HCT-116): 32.5 µM (inactive)
- GI50 (Hs-578T): 61.7 µM (inactive)
- GI50 (RPMI-8226): 29.2 µM (inactive)
- GI50 (UO-31): 39.6 µM (inactive)
- GI50 (SK-OV-3): 43.9 µM (inactive)
- GI50 (MDA-MB-231): 53.3 µM (inactive)
- GI50 (SNB-19): 55.1 µM (inactive)
- GI50 (DU-145): 72.1 µM (inactive)
- GI50 (UACC-257): 26.4 µM (inactive)
- GI50 (CAKI-1): 31.7 µM (inactive)
- GI50 (SK-MEL-28): 35 µM (inactive)
- GI50 (OVCAR-8): 32.7 µM (inactive)
- GI50 (HOP-92): 10.1 µM (inactive)
- GI50 (NCI/ADR-RES): 26.7 µM (inactive)
- GI50 (OVCAR-4): 3.01 µM (inactive)
- GI50 (SNB-75): 18 µM (inactive)
- GI50 (IGROV-1): 49.4 µM (inactive)
- GI50 (M14): 30.9 µM (inactive)
- GI50 (HCC 2998): 37 µM (inactive)
- GI50 (T47D): 18.8 µM (inactive)
- GI50 (OVCAR-5): > 100 µM (inactive)
- GI50 (A549): 39.8 µM (inactive)
- GI50 (OVCAR-3): 30.8 µM (inactive)
- GI50 (LOX IMVI): 36.9 µM (inactive)
- GI50 (PC-3): 38.2 µM (inactive)
- GI50 (MDA-MB-435): 20.8 µM (inactive)
- GI50 (SR): 26.1 µM (inactive)
- GI50 (U-251): 38.5 µM (inactive)
- GI50 (HCT-15): 33.2 µM
- GI50 (MOLT-4): 27 µM (inactive)
- GI50 (MDA-N): 29 µM (inactive)
- GI50 (SW-620): 37.1 µM (inactive)
- GI50 (786-0): 50.4 µM (inactive)
- GI50 (SF-268): 42.7 µM (inactive)
- GI50 (K562): 25.9 µM (inactive)
- GI50 (NCI-H226): 57.4 µM (inactive)
- GI50 (NCI-H23): 28.5 µM (inactive)
- GI50 (UACC-62): 21 µM (inactive)
- GI50 (SK-MEL-2): 32.5 µM (inactive)
